According to ChEMBL document CHEMBL5543100 (Eur J Med Chem, 2024):

System: OS-RC-2
Experiment: cells
Settings: Homo sapiens, OS-RC-2, 48 h
Description: Antiproliferative activity against human OS-RC-2 cells assessed as inhibition of cell growth incubated for 48 hrs

In the case of `CNC(=O)c1cc(Oc2ccc(NC(=O)Nc3ccc(Cl)c(C(F)(F)F)c3)cc2)ccn1` [SORAFENIB], the IC50 is reported as ~9 µM.
